The source of these data is patent US20230107216A1, “PANTETHEINE DERIVATIVES AND USES THEREOF” (Comet Therapeutics, Inc., priority 2018, published 2023).

Like-named read-outs stand apart in the source and are kept apart here.

Holding throughout (format): cell-based
Experiment [1] deals with HepG2 cells. The experiment is described as follows: Glucose uptake (Glucose Uptake-Glo). The conditions noted are these: Homo sapiens, read-out: % increase in Glucose Uptake.
The test system of experiment [2] is Methylmalonic Acidemia (MMA) primary fibroblasts Tsi 5224. The experiment is described as follows: Mitochondrial respiration, XFe96 Extracellular Flux Analyzer (OCR/ECAR), MMA fibroblasts Tsi 5224.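 Also: relative to vehicle DMSO control.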 Particulars: Homo sapiens, Fibroblast, MMA Tsi 5224, assay condition A (10 mM glucose, 2 mM L-glutamine, 1 mM pyruvate, 10% FBS), read-out: Increase in Maximal Respiratory Capacity AUC. The protocol: The effect of the compounds of the present disclosure on mitochondrial respiration was measured with a XFe96 Extracellular Flux Analyzer (Seahorse Bioscience, Agilent Technologies) and Oxygen consumption Rate (OCR) and Extracellular acidification rate (ECAR) determined.
Cell culture and treatments. Primary adherent fibroblasts were cultured in minimum essential medium (MEM) (Gibco, 25030081) supplemented with 2 mM L-Glutamine (Gibco, 25030081), 15% fetal bovine serum (FBS) (Gibco, 26400044) and 1% penicillin/streptomycin (Gibco, 5140122) at 37° C. and 5% CO2. Cells were collected for either passaging or experiment at ˜70-80% confluence. Cells were obtained by trypsinization and seeded at 20000 cells/well in cell culture microplates (Seahorse Bioscience, 101085-004) and allowed to adhere for 16 hours in culture media.
By profiling different primary cells and/or optimizing their culture media or environmental components one can select cell lines and/or conditions that are appropriate for the biological or disease model. In the present example, 24 hours prior to OCR and ECAR profiling, media was changed to Dulbecco's Modified Eagle Medium (DMEM, Agilent Seahorse 103575-100) with the appropriate supplements for the different primary cells (10 mM glucose, 2 mM L-glutamine, 1 mM pyruvate, 10% FBS; 1 mM glucose, 2 mM L-glutamine, 1 mM pyruvate, 10% FBS; 10 mM glucose, 10% FBS; 5 mM glucose 10% FBS; 1 mM glucose 10% FBS). Cells used in this example were: Propionic Acidemia (PA) (GM00371, GM03590 Coriell Institute for Medical Research, Tsi 6337, Tsi 4626, Tsi 3618 Trans-Hit Bio), Methylmalonic Acidemia (MMA) (GM01673, Coriell Institute for Medical Research, Tsi 5224 Trans-Hit Bio), Branched chain ketoacid dehydrogenase kinase (BCKDK) (GM00612, GM00649 Coriell Institute for Medical Research), Subnormal activation of pyruvate dehydrogenase complex (PDH) (GM01503 Coriell Institute for Medical Research), Very long-chain acyl-CoA dehydrogenase (VLCAD) (GM17475), Leigh Syndrome (LS) (GM03672, GM13411 Coriell Institute for Medical Research), Pyruvate Carboxylase Deficiency (PC) (GM00444 Coriell Institute for Medical Research), Glutaric Acidemia-I (GA) (GM10653), Friedreich's Ataxia (FXN) (GM04078 Coriell Institute for Medical Research, Huntington's disease (HD) (GM21756 Coriell Institute for Medical Research), Ornithine Transcarbamylase Deficiency (OTC) (GM12756 Coriell Institute for Medical Research), Kearns-Sayre Syndrome (KSS) (GM06225 Coriell Institute for Medical Research).
One hour before the assay, the cells were washed with freshly prepared unbuffered serum free-Seahorse XF Assay medium (Seahorse Bioscience, North America, USA, 103575-100) with the same supplements as for the previous 24 hour incubation.
After baseline measurements of OCR, cells were challenged with compounds of the present disclosure at different concentrations (10 to 50 μM) or vehicle (DMSO, 0.1%) and a post-compound baseline was recorded. OCR was measured after sequentially adding to each well 1 μg/ml oligomycin (inhibitor of ATP synthase Sigma-Aldrich, 753531), then maximal OCR was determined with carbonyl cyanide 4-(trifluoromethoxy) phenylhydrazone (FCCP, Sigma-Aldrich, C2920), (uncoupler of oxidative phosphorylation) and 0.5 μM of rotenone (Sigma-Aldrich, R8875) plus antimycin A (Sigma-Aldrich, A8674) (inhibitors of mitochondrial complex I and III) for determination of rotenone-antimycin insensitive respiration together with Hoechst for nuclear staining in situ when normalized to cell counts. After the analysis and nuclear staining, the XFp microplate was transferred to the Cytation 5, and the nuclear images were captured, the individual nuclei were identified and counted by BioTek Gen5 software. Data were expressed as pmol of O2 per minute and normalized by nuclear staining and baselined to pre-compound addition.
Assay conditions were as stated below.
Assay specifics on assay conditions are indicated below when readouts were normalized to cell counts. […]

For experiment [3], the system named is Propionic Acidemia (PA) primary fibroblasts GM00371. In words: Mitochondrial respiration, XFe96 Extracellular Flux Analyzer (OCR/ECAR), PA fibroblasts GM00371. The conditions noted are these: Homo sapiens, Fibroblast.
The subject of experiment [4] is HepG2 cells. The experiment is described as follows: Mitochondrial membrane potential (MITO-ID MP detection Kit). The conditions noted are these: Homo sapiens, 168 h, 50 uM, 7 days, read-out: % decrease in Mitochondrial Membrane Potential. The protocol:
HepG2 cells (ATCC, HB-8065) were cultured (5% CO2 at 37° C.) and plated in Poly-D-Lysine 384-Well plate (Corning, 356663) at a density of 160000 cells/mL in 50 μL/well. Culture and assay media consisted of DMEM (Gibco, 11995-065) supplemented with 1% Penicillin-Streptomycin and 10% FBS (Hyclone, SV30087.03).
MITO-ID® MP detection Kit (ENZ-51018) was used and manufacturer instructions followed. Cells were allowed to settle for 30 min at room temperature and further incubated overnight (37° C. and 5% CO2) for adherence. Next day, test compounds (50-10 μM) and vehicle DMSO (0.2%) were added at the recommended volumes to the 384-well plate for 7 days without media change using a Tecan compound dispenser. All the solutions and wash buffers were prepared and dispensed according to manufacturer's volumes for a 384-well plate format.

In the case of `CC(=O)OCC(C)(C)[C@@H](O)C(=O)NCCC(=O)NCCSC(=O)/C=C/C(=O)O` [Compound 144, (2E)-4-[(2-[3-[(2R)-4-(acetyloxy)-2-hydroxy-3,3-dimethylbutanamido]propanamido]ethyl)sulfanyl]-4-oxobut-2-enoic acid], the activation at 50 µM in the experiment with HepG2 cells [1] was at least 30%.
As to `CC(=O)SCCNC(=O)CCNC(=O)[C@H](O)C(C)(C)COC(=O)O[C@H](CC(=O)[O-])C[N+](C)(C)C` [Compound 183, (12R,18R)-12-hydroxy-13,13-dimethyl-2,7,11,16-tetraoxo-18-((trimethylammonio)methyl)-15,17-dioxa-3-thia-6,10-diazaicosan-20-oate], the activation at 10 µM in experiment [2] was at least 10%; in the experiment with HepG2 cells [1], at least 30%.
With `CC(=O)O[C@@H](C(=O)NCCC(=O)NCCSC(=O)CCC(=O)O)C(C)(C)CO` [Compound 211, 4-[(2-[3-[(2R)-2-(acetyloxy)-4-hydroxy-3,3-dimethylbutanamido]propanamido]ethyl)sulfanyl]-4-oxobutanoic acid], the activation at 50 µM with HepG2 cells [1] was at least 30%.
As for `COC(=O)CCC(=O)SCCNC(=O)CCNC(=O)[C@H](OC(C)=O)C(C)(C)COC(C)=O` [Compound 214, methyl 4-[(2-[3-[(2R)-2,4-bis(acetyloxy)-3,3-dimethylbutanamido]propanamido]ethyl)sulfanyl]-4-oxobutanoate], the activation at 50 µM in experiment [3] (assay condition A (10 mM glucose, 2 mM L-glutamine, 1 mM pyruvate, 10% FBS), read-out: Increase in Spare Capacity AUC) is at least 50%; in experiment [3] (assay condition D (1 mM glucose, 10% FBS), read-out: Increase in Spare Capacity AUC), at least 10%. Besides, the activation at 10 µM in the experiment with HepG2 cells [1] is at least 20%.
Turning to `CC(C(=O)O)C(=O)SCCNC(=O)CCNC(=O)[C@H](O)C(C)(C)CO` (stereo partly shown) [Compound 393], the results for the activation at 10 µM (in experiment [2]; in the experiment with HepG2 cells [1]) were at least 10% and at least 30%, respectively.
Turning to `CC(=O)SCCNC(=O)CCNC(=O)[C@H](O)C(C)(C)COC(=O)OCC[N+](C)(C)C` [Compound 503, [2-([[(3R)-3-[(2-[[2-(acetylsulfanyl)ethyl]carbamoyl]ethyl)carbamoyl]-3-hydroxy-2,2-dimethylpropoxy]carbonyl]oxy)ethyl]trimethylazanium], the activation at 50 µM in experiment [3] (assay condition A (10 mM glucose, 2 mM L-glutamine, 1 mM pyruvate, 10% FBS), read-out: Increase in Maximal Respiratory Capacity AUC) was at least 10%; with HepG2 cells [1] it was at least 20%.
For `CC(=O)SCCNC(=O)CCNC(=O)[C@H](O)C(C)(C)CO` [Compound 1241, (R)—S-(2-(3-(2,4-dihydroxy-3,3-dimethylbutanamido)propanamido)ethyl) ethanethioate], in the experiment with HepG2 cells [1], the activation at 10 µM is at least 30%.
Regarding `C[C@H](O)CC(=O)SCCNC(=O)CCNC(=O)[C@H](O)C(C)(C)CO` [Compound 1246, (2R)-2,4-dihydroxy-N-{2-[(2-{[(3S)-3-hydroxybutanoyl]sulfanyl}ethyl)carbamoyl]ethyl}-3,3-dimethylbutanamide], the inhibition at 50 µM with HepG2 cells [4] is over 50%.
`CC(=O)OCC(C)(C)[C@@H](OC(C)=O)C(=O)NCCC(=O)NCCS` [Compound 1263, (1R)-3-(acetyloxy)-2,2-dimethyl-1-([2-[(2-sulfanylethyl)carbamoyl]ethyl]carbamoyl)propyl acetate]: in the experiment on HepG2 cells [1], the activation at 50 µM was at least 30%.
The same measure, in the same setting: to `COC(=O)CCC1(CC(=O)SCCNC(=O)CCNC(=O)[C@H](O)C(C)(C)COC(C)=O)OCC(C)(C)CO1` [Compound 1268, methyl 3-(2-[2-[(2-[3-[(2R)-4-(acetyloxy)-2-hydroxy-3,3-dimethylbu-tanamido]propanamido]ethyl)sulfanyl]-2-oxoethyl]-5,5-dimethyl-1,3-dioxan-2-yl)propanoate] belongs at least 30%.
Regarding `CCC(=O)OCC(C)(C)[C@@H](O)C(=O)NCCC(=O)NCCSSCCNC(=O)CCNC(=O)[C@H](O)C(C)(C)COC(=O)CC` [Compound 1271, (3R)-3-hydroxy-3-[[2-([2-[(2-[3-[(2R)-2-hydroxy-3,3-dimethyl-4-(propanoyloxy)butanamido]propanamido]ethyl)disulfanyl]ethyl]carbamoyl)ethyl]carbamoyl]-2,2-dimethylpropyl propanoate], the activation at 10 µM in the experiment with HepG2 cells [1] is at least 10%.
As for `CC(C)(C)OC(=O)NCC(=O)OCC(C)(C)[C@@H](O)C(=O)NCCC(=O)NCCS` [Compound 1274, (3R)-3-hydroxy-2,2-dimethyl-3-([2-[(2-sulfanylethyl)carbamoyl]ethyl]carbamoyl)propyl 2-[(tert-butoxycarbonyl)amino]acetate], in the experiment with HepG2 cells [1], the activation at 50 µM was at least 30%.
`CC(=O)SCCNC(=O)CCNC(=O)[C@H](O)C(C)(C)COC(=O)CNC(=O)OC(C)(C)C` [Compound 1275, (3R)-3-[(2-[[2-(acetylsulfanyl)ethyl]carbamoyl]ethyl)carbamoyl]-3-hydroxy-2,2-dimethylpropyl 2-[(tert-butoxycarbonyl)amino]acetate]: the activation at 10 µM with HepG2 cells [1] is at least 20%.
In the case of `C[C@H](NC(=O)OC(C)(C)C)C(=O)OCC(C)(C)[C@@H](O)C(=O)NCCC(=O)NCCSSCCNC(=O)CCNC(=O)[C@H](O)C(C)(C)COC(=O)[C@H](C)NC(=O)OC(C)(C)C` [Compound 1277, (3R)-3-[[2-([2-[(2-[3-[(2R)-4-[[(2S)-2-[(tert-butoxycarbonyl)amino]propanoyl]oxy]-2-hydroxy-3,3-dimethylbutanamido]propanamido]ethyl)disulfanyl]ethyl]carbamoyl)ethyl]carbamoyl]-3-hydroxy-2,2-dimethylpropyl (2S)-2-[(tert-butoxycarbonyl)amino]propanoate], the activation at 10 µM with HepG2 cells [1] is at least 10%.
Consider `C[C@H](NC(=O)OC(C)(C)C)C(=O)OCC(C)(C)[C@@H](O)C(=O)NCCC(=O)NCCS` [Compound 1278, (3R)-3-hydroxy-2,2-dimethyl-3-([2-[(2-sulfanylethyl)carbamoyl]ethyl]carbamoyl)propyl (2S)-2-[(tert-butoxycarbonyl)amino]propanoate], for which the activation at 10 µM in the experiment with HepG2 cells [1] was at least 30%.
As for `CC(=O)NCC(=O)O[C@@H](C(=O)NCCC(=O)NCCSC(=O)CCC(=O)O)C(C)(C)CO` [Compound 1296, 4-[(2-[3-[(2R)-2-[(2-acetamidoacetyl)oxy]-4-hydroxy-3,3-dimethylbutanamido]propanamido]ethyl)sulfanyl]-4-oxobutanoic acid], the activation at 10 µM in experiment [3] (assay condition D (1 mM glucose, 10% FBS), 10 μM, read-out: Increase in Spare Capacity AUC) is at least 30%; in the experiment on HepG2 cells [1], at least 10%.
